Measured values published in patent US11285172B2, “Method for treating inflammatory diseases” (MacKay Memorial Hospital, priority 2019, dated 2022).
Counter-ions that a name gives are not always drawn.

Test system: FANCs internalization in HAECs
Experiment: Endocytic pathway inhibition: FANC internalization in HAECs after endocytosis inhibitor pre-treatment (flow cytometry, confocal)
Type: cell-based, human
Conditions: for effect on FANCs internalization: complete medium, inhibitor pre-treatment 45 min (filipin 30 min); for effect on FANCs internalization / decrement of FANCs internalization compared to FANCs control: then FANCs 80 min; for decrement of FANCs internalization compared to FANCs control: 45 min inhibitor pre-treatment
Procedure: In certain experiments, HAECs were treated by endocytosis inhibitors to inhibit endocytic pathways. Endocytosis inhibitors are chlorpromazine hydrochloride (10 μg/ml, C8138), filipin (10 μg/ml, F9765), amiloride (10 μmol/L A7410), and genistein (50 μmol/L G6649; all obtained from Sigma-Aldrich).
Cells were seeded onto 2% gelatin-coated glass coverslips and incubated for 24 hours and applied to FANCs treatments. Cells were fixed with 1% paraformaldehyde, washed with PBS, then blocked with 5% bovine serum albumin (BSA) for 30 minutes. Then the cell culture was incubated with primary antibodies against VE-cadherin at 37° C. for 2 hours, followed by application of FITC-conjugated secondary antibody (Chemicon, Temecula, Calif., USA) for 50 minutes under room temperature. After one hour for the pre-treatment by above-mentioned endocytosis inhibitor, HAECs were incubated with FANCs for 80 minutes followed by washed with PBS and fixed with 1% paraformaldehyde. Afterwards, cells were stained with bisbenzamide (18.7 μmol/L) for 15 minutes and then washed with PBS buffer. Then, the cells were mounted by using 60% glycerol (v/v) and examined by using a confocal microscope (Leica TCS SP5, Leica, Germany) with a 40× oil objective/1.25 aperture. The images were captured under room temperature.
After 45 minutes of inhibitors pre-treatment (except 30 minutes of filipin treatment), FANCs were added and the incubation continued for additional 80 minutes. Thereafter, cells were subject to flow cytometry (FIGS. 1A-1D). […] However, in low serum or no serum medium, internalization of FANCs was blocked by chlorpromazine hydrochloride (compared to FANCs control, 60% of decrement at 1% FBS medium and 51% of decrement at no serum medium; FIGS. 1B and 1C).

| Compound | effect on FANCs internalization (flow cytometry) | decrement of FANCs internalization compared to FANCs control (1% FBS medium, flow cytometry, HAECs) [%] | punctate fluorescence signals of FANCs (confocal microscopy) (confocal microscopy, HAECs, FANCs 80 min after inhibitor pre-treatment) | decrement of FANCs internalization compared to FANCs control (no serum medium, flow cytometry, HAECs) [%] | FANC internalization, dose dependence (only in low serum and no serum supplement culture environments, flow cytometry) |
| --- | --- | --- | --- | --- | --- |
| N=C(N)NC(=O)c1nc(Cl)c(N)nc1N [amiloride] | slighter effects |  |  |  |  |
| CN(C)CCCN1c2ccccc2Sc2ccc(Cl)cc21 [chlorpromazine hydrochloride] | slighter effects | 60 | down-regulated | 51 | attenuated FANC internalization in a dose-dependent manner |
| CCCCC[C@@H](O)[C@H]1C(=O)O[C@H](C)[C@@H](O)/C=C/C=C/C=C/C=C/C=C(\C)[C@@H](O)C[C@H](O)C[C@H](O)C[C@H](O)C[C@H](O)C[C@H](O)C[C@@H]1O [filipin] | slighter effects |  |  |  |  |
| O=c1c(-c2ccc(O)cc2)coc2cc(O)cc(O)c12 [genistein] | slighter effects |  |  |  |  |
